The text below walks through data of US20060051291A1, “Synthesis of radiolabeled sugar metal complexes” (priority 2004, published 2006).

This series is classed as physicochemical. An excerpt: Minor species are also detected by UV/visible spectroscopy in the HPLC of the complex and become more significant over time. The ^13C{^1H} NMR spectrum (d6-DMSO) of the complex was fully assigned for the α-anomer, and partially assigned for the β-anomer (as reflected above in TABLE 1).

For “Tricarbonyl (N-(2′-Hydroxybenzyl)-2-amino-2-deoxy-D-glucose) rhenium(I) [[(L^2)Re(CO)3]]”, the stability in solution entry was “become visibly brown”.
